Results reported in patent US20240197772A1, “COMPOSITIONS COMPRISING ONE OR MORE HMO'S WITH A CORE OF LacNAc-Lac” (FrieslandCampina Nederland B.V., priority 2020, published 2024).

Columns and labels:
CD36 = experiment: PCR gene expression of CD36 in PBMCs incubated with single HMOs; type: cell-based, human; conditions: PBMCs of 3 donors, 0.5 mg/ml HMO, 5 h, average, control set as 1, GAPDH reference gene
Protocol: (§1) The effect of single HMOs on the expression of genes relevant to cholesterol metabolism and atherogenesis was tested using Peripheral Blood Mononuclear Cells (PBMCs) from 3 donors and incubated those cells with 0.5 g/l of single HMOs. The level of expression was determined using PCR.
(§2) Peripheral blood mononuclear cells (PBMC's) were isolated from a buffy coat using Sepmate tubes. The cells were diluted to a concentration of 1*10^7 cells per ml. The PBMC's were seeded in 6 wells plates and treated with 0.5 g/l of each HMO in PBMC culturing medium for 5 h prior to RNA isolation. Each HMO was mixed with 100 ug/ml final concentration of Polymyxin B to ensure neutralization of possible endotoxin contamination of HMOs, while equal amounts of Polymyxin B were used as a control.
(§3) 500 ng RNA, isolated from PBMCs, was translated into cDNA, using the quantitect reverse transcription kit (Qiagen). Primersets for the regulated genes (shown in the table below), were ordered at Qiagen (Quantitect primer assays). From each condition (PBMCs of 3 donors in control situation and after exposure towards HMOs (5 hrs)) cDNA (100×, 10× for genes which were low expressed) was amplified using the different primersets.
(§4) GAPDH (Glyceraldehyde-3-Phosphate Dehydrogenase) was used as a reference gene to quantify changes of gene expression between the control and the HMO-treated cells.
(§5) • GAPDH: Hs_GAPDH_vb.1_SG QuantiTect Primer Assay • IL19: Hs_IL19_1_SG QuantiTect Primer Assay • CD36: Hs_CD36_3_SG QuantiTect Primer Assay • GPR43/FFAR2: Hs_FFAR2_2_SG QuantiTect Primer Assay • ABCA1: Hs_ABCA1_1_SG QuantiTect Primer Assay
(§6) 19 commercially available HMO's that are present in human milk were tested. All gene expression values were calibrated to the Polymyxin B control of each respective donor (set arbitrary as 1). Average values for each gene compared to the Polymyxin B control are shown below (values above 1.5 fold or below 0.5 fold were considered physiologically relevant).

GPR43/FFAR2 = experiment: PCR gene expression of GPR43/FFAR2 in PBMCs incubated with single HMOs; type: cell-based, human; conditions: PBMCs of 3 donors, 0.5 mg/ml HMO, 5 h, average, control set as 1, GAPDH reference gene
Protocol: as §1, §2, §3, §4, §5, §6

IL19 = experiment: PCR gene expression of IL19 in PBMCs incubated with single HMOs; type: cell-based, human; conditions: PBMCs of 3 donors, 0.5 mg/ml HMO, 5 h, average, control set as 1, GAPDH reference gene
Protocol: as §1, §2, §3, §4, §5, §6

ABCA1 = experiment: PCR gene expression of ABCA1 in PBMCs incubated with single HMOs; type: cell-based, human; conditions: PBMCs of 3 donors, 0.5 mg/ml HMO, 5 h, average, control set as 1, GAPDH reference gene
Protocol: as §1, §2, §3, §4, §5, §6
2′FL was included too as it was expected that the most abundant HMO in human milk would show changes in any of these systems. […]

CD14+ CD36+ PBMC's = experiment: Cholesterol uptake (Dil oxLDL) by FACS in PBMCs; type: cell-based; conditions: 0.5 mg/ml, 4 hrs pre-incubation then 10 ug/ml Dil oxLDL 1 hour; gated on CD14+ CD36+ cells; FIG. 1
Primary human adipocytes = experiment: Adipocyte glucose uptake assay (3H-2-deoxyglucose); type: cell-based; conditions: 2 hours incubation; compared with vehicle control DMSO and insulin 100 nM positive control; LPS 2 ng/mL
Text: • 1. Subcutaneous preadipocytes from Zen-Bio Inc were thawed and plated into appropriate experimental plate format. • 2. Upon thawing cells, culturing followed differentiation schedule below: • Day Treatment • 1 Plate cells in PM-1 • 2 Differentiate cells using DM-2 • 9 Feed cells Maintenance medium AM-1 • 16 Assay cells for lipid accumulation, lipolysis, glucose uptake or RNAseq. • 1. Primary human adipocytes were differentiated in 96-well isoplates • 2. At 14 days post differentiation, the cells were treated with glucose uptake starvation media (Zen-Bio Inc) overnight. • 3. The next morning, the cells were washed with assay buffer and the cells were treated with compounds in glucose assay buffer containing ^3H-2-deoxyglucose cocktail and the cells were incubated at 37° C., 5% CO2 and allowed to incubate for 2 hours. • 4. After 2 hours, the cells were washed with PBS, lysed, and mixed with Optiphase “Supermix” scintillation fluid (Zen-Bio Inc). The Counts Per Minute (CPM) of each well measured. • Vehicle control: DMSO (control) • Zen Bio Insulin positive control: 100 nM (insulin) • Control for possible endotoxin contamination of pHMOs: […]

Row | Molecule | CD36 gene expression relative to Polymyxin B control (CD36) [fold] | FFAR2 gene expression relative to Polymyxin B control (GPR43/FFAR2) [fold] | IL19 gene expression relative to Polymyxin B control (IL19) [fold] | ABCA1 gene expression relative to Polymyxin B control (ABCA1) [fold] | cholesterol level in the cell, % of original value (MFI vs no glycan control with Dil oxLDL) (CD14+ CD36+ PBMC's) | glucose uptake (CPM of 3H-2-deoxyglucose) (Primary human adipocytes) | CD36 gene expression relative to Polymyxin B control (CD36; listed as LNF-III)
1 | 3-Fucosyllactose [3FL] | 0.98 | 1.18 | 1.06 |  |  |  | 
2 | CC(=O)N[C@H]1[C@H](O[C@H]2[C@@H](O)[C@@H](CO)O[C@@H](O[C@H]3[C@H](O)[C@@H](O)C(O)O[C@@H]3CO)[C@@H]2O)O[C@H](CO)[C@@H](O[C@@H]2O[C@H](CO)[C@H](O)[C@H](O)[C@H]2O)[C@@H]1O (mixture of isomers) [LNnT, lacto-N-neotetraose] | 0.93 | 0.93 | 0.93 |  |  |  | 
3 | C[C@@H]1O[C@@H](O[C@H]2[C@H](O[C@H]3[C@H](O)[C@@H](O)C(O)O[C@@H]3CO)O[C@H](CO)[C@H](O)[C@@H]2O)[C@@H](O)[C@H](O)[C@@H]1O (stereo partly drawn) [2′FL, 2′-fucosyllactose] | 0.67 | 0.72 |  | 1.09 | about 91% | not significantly different from the vehicle control | 
4 | CC(=O)N[C@H]1[C@H]([C@H](O)[C@H](O)CO)O[C@@](O[C@H]2[C@@H](O)[C@@H](CO)O[C@@H](O[C@H]3[C@H](O[C@@H]4O[C@@H](C)[C@@H](O)[C@@H](O)[C@@H]4O)[C@@H](O)C(O)O[C@@H]3CO)[C@@H]2O)(C(=O)O)C[C@@H]1O (stereo partly drawn) [3S3FL] | 0.90 | 1.03 | 0.94 |  |  |  | 
5 | CC(=O)N[C@H]1[C@H]([C@H](O)[C@H](O)CO)O[C@@](O[C@H]2[C@@H](O)[C@@H](CO)O[C@@H](O[C@H]3[C@H](O)[C@@H](O)C(O)O[C@@H]3CO)[C@@H]2O)(C(=O)O)C[C@@H]1O (stereo partly drawn) [3′SL, 3′-Sialyllactose] | 0.87 | 1.25 | 1.24 |  |  |  | 
6 | CC(=O)N[C@H]1[C@H]([C@H](O)[C@H](O)CO)O[C@@](OC[C@H]2O[C@@H](O[C@H]3[C@H](O)[C@@H](O)[C@H](O)O[C@@H]3CO)[C@H](O)[C@@H](O)[C@H]2O)(C(=O)O)C[C@@H]1O [6′SL, 6′-Sialyllactose] | 0.93 | 1.83 | 1.05 |  |  |  | 
7 | CC(=O)N[C@H]1[C@H](O[C@H]2[C@@H](O)[C@@H](CO)O[C@@H](O[C@@H]([C@H](O)[C@@H](O)C=O)[C@H](O)CO)[C@@H]2O)O[C@H](CO[C@]2(C(=O)O)C[C@H](O)[C@@H](NC(C)=O)[C@H]([C@H](O)[C@H](O)CO)O2)[C@@H](O)[C@@H]1O[C@@H]1O[C@H](CO)[C@H](O)[C@H](O[C@]2(C(=O)O)C[C@H](O)[C@@H](NC(C)=O)[C@H]([C@H](O)[C@H](O)CO)O2)[C@H]1O [DSLNT, disialyllacto-N-tetraose] |  |  |  | 2.02 |  |  | 
8 | C[C@@H]1O[C@@H](O[C@H]2[C@H](O[C@H]3[C@H](O[C@@H]4O[C@@H](C)[C@@H](O)[C@@H](O)[C@@H]4O)[C@@H](O)C(O)O[C@@H]3CO)O[C@H](CO)[C@H](O)[C@@H]2O)[C@@H](O)[C@H](O)[C@@H]1O (stereo partly drawn) [LDFT] | 1.00 | 1.64 | 0.75 |  |  |  | 
9 | CC(=O)N[C@H]1[C@H](O[C@H]2[C@@H](O)[C@@H](CO)O[C@@H](O[C@H]3[C@H](O)[C@@H](O)C(O)O[C@@H]3CO)[C@@H]2O)O[C@H](CO)[C@@H](O)[C@@H]1O[C@@H]1O[C@H](CO)[C@H](O)[C@H](O)[C@H]1O (stereo partly drawn) [LNT, lacto-N-tetraose] | 0.93 | 0.93 | 0.93 |  |  |  | 
10 | CC(=O)N[C@H]1[C@H](O[C@H]2[C@@H](O)[C@@H](CO)O[C@@H](O[C@@H]([C@H](O)[C@@H](O)C=O)[C@H](O)CO)[C@@H]2O)O[C@H](CO[C@]2(C(=O)O)C[C@H](O)[C@@H](NC(C)=O)[C@H]([C@H](O)[C@H](O)CO)O2)[C@@H](O)[C@@H]1O[C@@H]1O[C@H](CO)[C@H](O)[C@H](O)[C@H]1O [LSTb, sialyllacto-N-tetraose b] | 0.75 |  | 1.31 |  |  |  | 
11 | CC(=O)N[C@H]1[C@H](O[C@H]2[C@@H](O)[C@@H](CO)O[C@@H](O[C@H]3[C@H](O)[C@@H](O)C(O)O[C@@H]3CO)[C@@H]2O)O[C@H](CO)[C@@H](O[C@@H]2O[C@H](CO[C@]3(C(=O)O)C[C@H](O)[C@@H](NC(C)=O)[C@H]([C@H](O)[C@H](O)CO)O3)[C@H](O)[C@H](O)[C@H]2O)[C@@H]1O (stereo partly drawn) [LSTc] | 0.90 | 1.02 | 1.25 |  |  |  | 
12 | LNFP-I | 0.85 | 0.86 | 1.89 |  |  |  | 
13 | Lacto-N-fucopentaose III [LNFP-III] | 0.08 |  |  |  |  |  | reduce
14 | Lipopolysaccharide [LPS] |  |  |  |  |  | did not upregulate glucose uptake at all | 
15 | lactodifucoheaxose II [LNDFH-II] |  |  |  | 2.16 |  |  | 
